The target of the experiment is OGG1 (Homo sapiens (Human), UniProt O15527). Description: OGG1 inhibitor assay with fluorogenic OGR1 probe (base excision, initial rates). It is filed as biochemical. The following applies: for Enzyme activity, % of control at 2 μM: 2 μM compound; for Enzyme activity, % of control at 2 μM / Enzyme activity, % of control at 20 μM / Enzyme activity, % of control at 200 nM: ratio of initial rate slope (first 12 min) to no-compound control; for Enzyme activity, % of control at 20 μM: 20 μM compound; for IC50: initial rates method. Here is the method: Methods: Synthesized compounds and hOGG1 (100 nM) were incubated in NEBuffer 4 (1×) with BSA (1×) at 37° C. (15 min) in 100 μL reaction volumes in a black 96-well plate. (See, e.g., Edwards, S. K., et al., ChemBioChem 2015, 16, 1637-1646, the disclosure of which is incorporated herein by reference.) After that, OGR1 (1.2 μM) was added to the reaction mixture. Fluorescence at 460 nm was measured on a Thermo Fluoroskan Ascent FL fluorescence plate reader (λex=355 nm). The slope of initial rate (12 min) was calculated, and % of control was used for inhibition activity. BSA, hOGG1 and NEBuffer 4 were purchased from New England Biolabs and used. UltraPure Distilled Water (Invitrogen) was purchased and used for the assay.
OGG1, sequence (O15527 whole entry): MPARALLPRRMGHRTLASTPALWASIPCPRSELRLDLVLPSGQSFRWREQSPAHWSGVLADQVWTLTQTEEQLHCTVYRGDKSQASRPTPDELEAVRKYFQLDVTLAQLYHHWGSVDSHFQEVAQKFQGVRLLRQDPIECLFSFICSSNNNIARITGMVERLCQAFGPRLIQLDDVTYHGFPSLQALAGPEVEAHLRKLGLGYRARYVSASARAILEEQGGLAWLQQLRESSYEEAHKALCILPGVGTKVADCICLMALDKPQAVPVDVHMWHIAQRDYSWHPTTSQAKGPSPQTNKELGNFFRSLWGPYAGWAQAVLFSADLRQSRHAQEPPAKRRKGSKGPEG

39 molecules from patent publication US11440887B2, “Substituted 1,2,3,4-tetrahydroquinolines as inhibitors of repair enzyme 8-oxoguanine deoxyribonucleic acid glycosylase activity” (The Board of Trustees of the Leland Stanford Junior …, priority 2017, dated 2022) can be followed below.

With `CCOc1ccc(S(=O)(=O)Nc2ccc3c(c2)N(C(=O)CC)CCC3)cc1` [Compound 2], the “Enzyme activity, % of control at 2 μM” value is reported as 51 ± 1.4 % of control and the “Enzyme activity, % of control at 20 μM” value is reported as 3.7 ± 0.83 % of control.
As for `CCOc1ccc(S(=O)(=O)Nc2ccc3c(c2)N(C(=O)Cc2ccccc2)CCC3)cc1` [Compound 3], the “Enzyme activity, % of control at 2 μM” value is ≥100 % of control and the “Enzyme activity, % of control at 20 μM” value was 79 % of control.
In the case of `CCOc1ccc(S(=O)(=O)Nc2ccc3c(c2)N(C(=O)CCOC)CCC3)cc1` [Compound 4], the “Enzyme activity, % of control at 2 μM” value is 93 % of control and the “Enzyme activity, % of control at 20 μM” value is listed as 51 % of control.
The matching figures for `CCOc1ccc(S(=O)(=O)Nc2ccc3c(c2)N(C(=O)C(C)C)CCC3)cc1` [Compound 5]: 96 % of control and 52 % of control.
As for `CCOc1ccc(S(=O)(=O)Nc2ccc3c(c2)N(C(=O)C(C)(C)C)CCC3)cc1` [Compound 6], the “Enzyme activity, % of control at 20 μM” value is recorded as ≥100 % of control.
The IC50 is the concentration that gives 50% inhibition. As for `CCOc1ccc(S(=O)(=O)Nc2ccc3c(c2)N(C(=O)C2CC2)CCC3)cc1` [Compound 7], the “Enzyme activity, % of control at 2 μM” value is listed as 41 ± 1.7 % of control; the “Enzyme activity, % of control at 20 μM” value was 5.8 ± 1.9 % of control; the IC50 amounted to 1100 nM. For the same molecule, for the setting “200 nM compound”, the “Enzyme activity, % of control at 200 nM” value was 82 ± 12 % of control.
For the molecule `CCOc1ccc(S(=O)(=O)Nc2ccc3c(c2)N(C(=O)C2CCC2)CCC3)cc1` [Compound 8], the “Enzyme activity, % of control at 2 μM” value is recorded as 69 % of control and the “Enzyme activity, % of control at 20 μM” value is reported as 33 % of control.
On to `CCOc1ccc(S(=O)(=O)Nc2ccc3c(c2)N(S(=O)(=O)CC)CCC3)cc1` [Compound 9], for which the “Enzyme activity, % of control at 2 μM” value was 96 % of control and the “Enzyme activity, % of control at 20 μM” value is listed as 92 % of control.
Consider `CCOc1ccc(S(=O)(=O)Nc2ccc3c(c2)N(C(=O)NC2CC2)CCC3)cc1` [Compound 10], for which the “Enzyme activity, % of control at 2 μM” value is on record as 87 % of control and the “Enzyme activity, % of control at 20 μM” value was 77 % of control.
Regarding `CCOc1ccc(S(=O)(=O)Nc2ccc3c(c2)N(CC2CC2)CCC3)cc1` [Compound 11], the “Enzyme activity, % of control at 2 μM” value is reported as ≥100 % of control and the “Enzyme activity, % of control at 20 μM” value is recorded as 83 % of control.
Taken in the same sequence, the figures for `CCOc1ccc(S(=O)(=O)Nc2cccc(NC(C)=O)c2)cc1` [Compound 12] were 96 % of control and 70 % of control.
The matching figures for `CCOc1ccc(S(=O)(=O)Nc2ccc3c(c2)N(C(=O)CC)CC3)cc1` [Compound 13]: 95 % of control and ≥100 % of control.
In the case of `CCOc1ccc(S(=O)(=O)Nc2ccc3c(c2)N(C(=O)C2CC2)CCCC3)cc1` [Compound 14], the “Enzyme activity, % of control at 2 μM” value is given as 76 % of control and the “Enzyme activity, % of control at 20 μM” value was 35 % of control.
On to `CCOc1ccc(S(=O)(=O)Nc2ccc3c(c2)N(C(=O)C2CC2)CCO3)cc1` [Compound 15], for which the “Enzyme activity, % of control at 2 μM” value is listed as 90 % of control and the “Enzyme activity, % of control at 20 μM” value is recorded as 41 % of control.
`CCOc1ccc(S(=O)(=O)Nc2cc3c(cc2OC)CCCN3C(=O)C2CC2)cc1` [Compound 16]: the “Enzyme activity, % of control at 2 μM” value is ≥100 % of control and the “Enzyme activity, % of control at 20 μM” value is given as 93 % of control.
As for `CCOc1ccc(S(=O)(=O)Nc2ccc3c(c2)CN(C(=O)C2CC2)CC3)cc1` [Compound 17], the “Enzyme activity, % of control at 2 μM” value is listed as 94 % of control and the “Enzyme activity, % of control at 20 μM” value is listed as 88 % of control.
Take `CCOc1ccc(S(=O)(=O)N(O)c2ccc3c(c2)N(C(=O)C2CC2)CCC3)cc1` [Compound 18]: the “Enzyme activity, % of control at 2 μM” value was 79 % of control and the “Enzyme activity, % of control at 20 μM” value is reported as 21 % of control. Also, for the setting “200 nM compound”, the “Enzyme activity, % of control at 200 nM” value is ≥100 % of control.
As for `CCOc1ccc(S(=O)(=O)N(C)c2ccc3c(c2)N(C(=O)C2CC2)CCC3)cc1` [Compound 19], the “Enzyme activity, % of control at 2 μM” value is reported as 84 % of control and the “Enzyme activity, % of control at 20 μM” value is given as 79 % of control.
On to `CCOc1ccc(C(=O)Nc2ccc3c(c2)N(C(=O)C2CC2)CCC3)cc1` [Compound 20], for which the “Enzyme activity, % of control at 2 μM” value is listed as ≥100 % of control and the “Enzyme activity, % of control at 20 μM” value is listed as ≥100 % of control.
In the case of `CCOc1ccc(NC(=O)Nc2ccc3c(c2)N(C(=O)C2CC2)CCC3)cc1` [Compound 21], the “Enzyme activity, % of control at 2 μM” value is ≥100 % of control and the “Enzyme activity, % of control at 20 μM” value is given as ≥100 % of control.
Turning to `CCC(=O)N1CCCc2ccc(NS(=O)(=O)CC)cc21` [Compound 22], the “Enzyme activity, % of control at 2 μM” value is 94 % of control and the “Enzyme activity, % of control at 20 μM” value was 74 % of control.
For the molecule `CCCc1ccc(S(=O)(=O)Nc2ccc3c(c2)N(C(=O)C2CC2)CCC3)cc1` [Compound 23], the “Enzyme activity, % of control at 2 μM” value was 35 % of control and the “Enzyme activity, % of control at 20 μM” value was 14 % of control. The “Enzyme activity, % of control at 200 nM” value (200 nM compound) is 74 % of control.
Regarding `CCCOc1ccc(S(=O)(=O)Nc2ccc3c(c2)N(C(=O)C2CC2)CCC3)cc1` [Compound 24], the “Enzyme activity, % of control at 2 μM” value is 19 % of control. The “Enzyme activity, % of control at 200 nM” value (200 nM compound) is on record as 95 % of control.
Regarding `CCNc1ccc(S(=O)(=O)Nc2ccc3c(c2)N(C(=O)C2CC2)CCC3)cc1` [Compound 25], the “Enzyme activity, % of control at 2 μM” value is given as 58 % of control and the “Enzyme activity, % of control at 20 μM” value is 10 % of control. In addition, the “Enzyme activity, % of control at 200 nM” value (200 nM compound) was ≥100 % of control.
On to `CSc1ccc(S(=O)(=O)Nc2ccc3c(c2)N(C(=O)C2CC2)CCC3)cc1` [Compound 26], for which the “Enzyme activity, % of control at 2 μM” value is reported as 53 % of control and the “Enzyme activity, % of control at 20 μM” value was 3.6 % of control. Besides, where the note is “200 nM compound”, the “Enzyme activity, % of control at 200 nM” value is 75 % of control.
As to `CCOc1ccc(S(=O)(=O)Nc2ccc3c(c2)N(C(=O)C2CC2)CCC3)cc1C` [Compound 27], the “Enzyme activity, % of control at 2 μM” value was 71 % of control and the “Enzyme activity, % of control at 20 μM” value is 22 % of control.
`O=C(C1CC1)N1CCCc2ccc(NS(=O)(=O)c3ccc(Oc4ccccc4)cc3)cc21` [Compound 28]: the “Enzyme activity, % of control at 2 μM” value is given as 41 ± 2.0 % of control; the “Enzyme activity, % of control at 20 μM” value is 8.3 % of control; the IC50 was 1500 nM. Where the note is “200 nM compound”, the “Enzyme activity, % of control at 200 nM” value is given as ≥100 % of control.
As for `O=C(C1CC1)N1CCCc2ccc(NS(=O)(=O)c3ccc4oc5ccccc5c4c3)cc21` [Compound 29], the “Enzyme activity, % of control at 2 μM” value is 82 % of control and the “Enzyme activity, % of control at 20 μM” value is recorded as 71 % of control.
As to `O=C(C1CC1)N1CCCc2ccc(NS(=O)(=O)c3ccc(-c4ccccc4)cc3)cc21` [Compound 30], the “Enzyme activity, % of control at 2 μM” value is 29 ± 7.0 % of control. The “Enzyme activity, % of control at 200 nM” value (200 nM compound) is given as 90 ± 6.2 % of control.
Regarding `O=C(C1CC1)N1CCCc2ccc(NS(=O)(=O)c3ccc(C4CCCCC4)cc3)cc21` [Compound 31], the “Enzyme activity, % of control at 2 μM” value was 25 % of control. In addition, for the setting “200 nM compound”, the “Enzyme activity, % of control at 200 nM” value is on record as 87 % of control.
As for `O=C(C1CC1)N1CCCc2ccc(NS(=O)(=O)c3ccc(N4CCOCC4)cc3)cc21` [Compound 32], the “Enzyme activity, % of control at 2 μM” value was 76 % of control. Also, the “Enzyme activity, % of control at 200 nM” value (200 nM compound) is given as 84 % of control.
As to `O=C(C1CC1)N1CCCc2ccc(NS(=O)(=O)c3ccc(-n4cccn4)cc3)cc21` [Compound 33], the “Enzyme activity, % of control at 2 μM” value is given as 45 ± 1.3 % of control and the “Enzyme activity, % of control at 20 μM” value is recorded as 14 ± 3.2 % of control. The “Enzyme activity, % of control at 200 nM” value (200 nM compound) is listed as 81 % of control.
In the case of `O=C(C1CC1)N1CCCc2ccc(NS(=O)(=O)c3ccc(-c4cccnc4)cc3)cc21` [Compound 34], the “Enzyme activity, % of control at 2 μM” value is 23 ± 1.5 % of control; the “Enzyme activity, % of control at 20 μM” value is 2.0 % of control; the IC50 was determined as 270 nM. Further, under “200 nM compound”, the “inhibition of activity at 200 nM” value is given as “ca. 40%” and the “Enzyme activity, % of control at 200 nM” value was 61 ± 1.3 % of control.
Consider `O=C(C1CC1)N1CCCc2ccc(NS(=O)(=O)c3ccc(-c4ccc(C(F)(F)F)cc4)cc3)cc21` [Compound 35], for which the “Enzyme activity, % of control at 2 μM” value was 72 % of control. The “Enzyme activity, % of control at 200 nM” value (200 nM compound) is 97 % of control.
Take `COc1ccc(-c2ccc(S(=O)(=O)Nc3ccc4c(c3)N(C(=O)C3CC3)CCC4)cc2)cc1` [Compound 36]: the “Enzyme activity, % of control at 2 μM” value is given as 31 % of control. For the same molecule, the “Enzyme activity, % of control at 200 nM” value (200 nM compound) is 79 % of control.
As for `COc1cccc(-c2ccc(S(=O)(=O)Nc3ccc4c(c3)N(C(=O)C3CC3)CCC4)cc2)c1` [Compound 37], the “Enzyme activity, % of control at 2 μM” value is recorded as 13 % of control. For the setting “200 nM compound”, the “Enzyme activity, % of control at 200 nM” value is listed as 67 % of control.
As for `CN(C)c1cccc(-c2ccc(S(=O)(=O)Nc3ccc4c(c3)N(C(=O)C3CC3)CCC4)cc2)c1` [Compound 38], under “200 nM compound”, the “Enzyme activity, % of control at 200 nM” value is 70 % of control.
Regarding `CNC(=O)c1cccc(-c2ccc(S(=O)(=O)Nc3ccc4c(c3)N(C(=O)C3CC3)CCC4)cc2)c1` [Compound 40], for the setting “200 nM compound”, the “Enzyme activity, % of control at 200 nM” value is given as 48 % of control.
`NNC(=O)c1sc2cccc(Cl)c2c1Cl` [Compound O8, reference compound]: the “Enzyme activity, % of control at 2 μM” value is given as 69 % of control and the “Enzyme activity, % of control at 20 μM” value is 45 % of control.
